# Species on record: Rattus norvegicus
# Assay: DrugMatrix - Regimen: Daily Repeat
# Assay type: toxicity, organism-based, Sprague-Dawley
# Set-up: regimen Daily Repeat, gender Male, age 6-8 weeks
# Details: in vivo, po, route oral GAVAGE, vehicle .5 % CMC; for ABSOLUTE BASOPHIL / ABSOLUTE EOSINOPHIL / ABSOLUTE LYMPHOCYTE / ABSOLUTE MONOCYTE / ABSOLUTE SEGMENTED NEUTROPHIL / BASOPHIL / EOSINOPHIL / ERYTHROCYTE COUNT / HEMATOCRIT / HEMOGLOBIN / LEUKOCYTE COUNT / LYMPHOCYTE / MEAN CORPUSCULAR HEMOGLOBIN / MEAN CORPUSCULAR HEMOGLOBIN CONCENTRATION / MEAN CORPUSCULAR VOLUME / MONOCYTE / NEUTROPHIL / NUCLEATED RED BLOOD CELLS / PLATELET COUNT: tissue Blood; for ALANINE AMINOTRANSFERASE / ALBUMIN / ALKALINE PHOSPHATASE / ASPARTATE AMINOTRANSFERASE / BLOOD UREA NITROGEN / CARBON DIOXIDE / CHLORIDE / CHOLESTEROL / CREATINE PHOSPHOKINASE / CREATININE / GLUCOSE / LACTATE DEHYDROGENASE / LIPASE / PHOSPHORUS / POTASSIUM / SODIUM / TOTAL BILIRUBIN / TOTAL PROTEIN / URIC ACID: tissue Plasma
# [1] = 300 mg/kg, 72 h, dose level M1, time 3 day
# [2] = 300 mg/kg, 120 h, dose level M1, time 5 day
# [3] = 1100 mg/kg, 72 h, dose level High, time 3 day
# [4] = 1100 mg/kg, 120 h, dose level High, time 5 day
compound,measurement,setting,value
COc1ccc(/C=C/C(=O)Nc2ccccc2C(=O)O)cc1OC,ABSOLUTE BASOPHIL,[1],0 CELLS/uL
same,ABSOLUTE EOSINOPHIL,[1],0 CELLS/uL
same,ABSOLUTE LYMPHOCYTE,[1],15435.67 CELLS/uL
same,ABSOLUTE MONOCYTE,[1],65.33 CELLS/uL
same,ABSOLUTE SEGMENTED NEUTROPHIL,[1],1499 CELLS/uL
same,BASOPHIL,[1],0%
same,EOSINOPHIL,[1],0%
same,ERYTHROCYTE COUNT,[1],5.52 x10E6/uL
same,HEMATOCRIT,[1],35.2%
same,HEMOGLOBIN,[1],13.97 G/DL
same,LEUKOCYTE COUNT,[1],17 x10E3/uL
same,LYMPHOCYTE,[1],90.67%
same,MEAN CORPUSCULAR HEMOGLOBIN,[1],25.3 pg
same,MEAN CORPUSCULAR HEMOGLOBIN CONCENTRATION,[1],39.67 G/DL
same,MEAN CORPUSCULAR VOLUME,[1],63.73 fL
same,MONOCYTE,[1],0.33%
same,NEUTROPHIL,[1],9%
same,NUCLEATED RED BLOOD CELLS,[1],0 /100WBC
same,PLATELET COUNT,[1],1287.67 x10E3/uL
same,ALANINE AMINOTRANSFERASE,[1],54.67 u/L
same,ALBUMIN,[1],4.27 G/DL
same,ALKALINE PHOSPHATASE,[1],401.67 u/L
same,ASPARTATE AMINOTRANSFERASE,[1],92.67 u/L
same,BLOOD UREA NITROGEN,[1],14 mg/dL
same,CARBON DIOXIDE,[1],24 mmol/L
same,CHLORIDE,[1],103 MEQ/L
same,CHOLESTEROL,[1],78.33 mg/dL
same,CREATINE PHOSPHOKINASE,[1],294 u/L
same,CREATININE,[1],0.15 mg/dL
same,GLUCOSE,[1],150.67 mg/dL
same,LACTATE DEHYDROGENASE,[1],445 u/L
same,LIPASE,[1],9 u/L
same,PHOSPHORUS,[1],13.6 mg/dL
same,POTASSIUM,[1],6.91 MEQ/L
same,SODIUM,[1],145.8 MEQ/L
same,TOTAL BILIRUBIN,[1],0.17 mg/dL
same,TOTAL PROTEIN,[1],6 G/DL
same,URIC ACID,[1],1.4 mg/dL
same,ABSOLUTE BASOPHIL,[2],0 CELLS/uL
same,ABSOLUTE EOSINOPHIL,[2],240.33 CELLS/uL
same,ABSOLUTE LYMPHOCYTE,[2],16960.67 CELLS/uL
same,ABSOLUTE MONOCYTE,[2],310.67 CELLS/uL
same,ABSOLUTE SEGMENTED NEUTROPHIL,[2],988.33 CELLS/uL
same,BASOPHIL,[2],0%
same,EOSINOPHIL,[2],1.33%
same,ERYTHROCYTE COUNT,[2],5.25 x10E6/uL
same,HEMATOCRIT,[2],33.97%
same,HEMOGLOBIN,[2],13.6 G/DL
same,LEUKOCYTE COUNT,[2],18.5 x10E3/uL
same,LYMPHOCYTE,[2],91.67%
same,MEAN CORPUSCULAR HEMOGLOBIN,[2],25.93 pg
same,MEAN CORPUSCULAR HEMOGLOBIN CONCENTRATION,[2],40.07 G/DL
same,MEAN CORPUSCULAR VOLUME,[2],64.73 fL
same,MONOCYTE,[2],1.67%
same,NEUTROPHIL,[2],5.33%
same,NUCLEATED RED BLOOD CELLS,[2],0 /100WBC
same,PLATELET COUNT,[2],1233.33 x10E3/uL
same,ALANINE AMINOTRANSFERASE,[2],54.33 u/L
same,ALBUMIN,[2],4.33 G/DL
same,ALKALINE PHOSPHATASE,[2],383 u/L
same,ASPARTATE AMINOTRANSFERASE,[2],84.33 u/L
same,BLOOD UREA NITROGEN,[2],18 mg/dL
same,CARBON DIOXIDE,[2],21 mmol/L
same,CHLORIDE,[2],105 MEQ/L
same,CHOLESTEROL,[2],63 mg/dL
same,CREATINE PHOSPHOKINASE,[2],256.33 u/L
same,CREATININE,[2],0.21 mg/dL
same,GLUCOSE,[2],156.33 mg/dL
same,LACTATE DEHYDROGENASE,[2],285 u/L
same,LIPASE,[2],8 u/L
same,PHOSPHORUS,[2],11.8 mg/dL
same,POTASSIUM,[2],6.72 MEQ/L
same,SODIUM,[2],146.17 MEQ/L
same,TOTAL BILIRUBIN,[2],0.2 mg/dL
same,TOTAL PROTEIN,[2],5.93 G/DL
same,URIC ACID,[2],1.3 mg/dL
same,ABSOLUTE BASOPHIL,[3],0 CELLS/uL
same,ABSOLUTE EOSINOPHIL,[3],138 CELLS/uL
same,ABSOLUTE LYMPHOCYTE,[3],17593 CELLS/uL
same,ABSOLUTE MONOCYTE,[3],218.33 CELLS/uL
same,ABSOLUTE SEGMENTED NEUTROPHIL,[3],4950.67 CELLS/uL
same,BASOPHIL,[3],0%
same,EOSINOPHIL,[3],0.67%
same,ERYTHROCYTE COUNT,[3],5.25 x10E6/uL
same,HEMATOCRIT,[3],33.23%
same,HEMOGLOBIN,[3],12.93 G/DL
same,LEUKOCYTE COUNT,[3],22.9 x10E3/uL
same,LYMPHOCYTE,[3],77%
same,MEAN CORPUSCULAR HEMOGLOBIN,[3],24.77 pg
same,MEAN CORPUSCULAR HEMOGLOBIN CONCENTRATION,[3],38.97 G/DL
same,MEAN CORPUSCULAR VOLUME,[3],63.5 fL
same,MONOCYTE,[3],1%
same,NEUTROPHIL,[3],21.33%
same,NUCLEATED RED BLOOD CELLS,[3],0 /100WBC
same,PLATELET COUNT,[3],1488 x10E3/uL
same,ALANINE AMINOTRANSFERASE,[3],95 u/L
same,ALBUMIN,[3],4.4 G/DL
same,ALKALINE PHOSPHATASE,[3],368 u/L
same,ASPARTATE AMINOTRANSFERASE,[3],112.67 u/L
same,BLOOD UREA NITROGEN,[3],18.33 mg/dL
same,CARBON DIOXIDE,[3],19.33 mmol/L
same,CHLORIDE,[3],104 MEQ/L
same,CHOLESTEROL,[3],47.33 mg/dL
same,CREATINE PHOSPHOKINASE,[3],547 u/L
same,CREATININE,[3],0.11 mg/dL
same,GLUCOSE,[3],149.67 mg/dL
same,LACTATE DEHYDROGENASE,[3],794 u/L
same,LIPASE,[3],10 u/L
same,PHOSPHORUS,[3],12 mg/dL
same,POTASSIUM,[3],5.56 MEQ/L
same,SODIUM,[3],142.2 MEQ/L
same,TOTAL BILIRUBIN,[3],0.27 mg/dL
same,TOTAL PROTEIN,[3],5.77 G/DL
same,URIC ACID,[3],1.67 mg/dL
same,ABSOLUTE BASOPHIL,[4],0 CELLS/uL
same,ABSOLUTE EOSINOPHIL,[4],0 CELLS/uL
same,ABSOLUTE LYMPHOCYTE,[4],8740 CELLS/uL
same,ABSOLUTE MONOCYTE,[4],0 CELLS/uL
same,ABSOLUTE SEGMENTED NEUTROPHIL,[4],2760 CELLS/uL
same,BASOPHIL,[4],0%
same,EOSINOPHIL,[4],0%
same,ERYTHROCYTE COUNT,[4],5.33 x10E6/uL
same,HEMATOCRIT,[4],31.3%
same,HEMOGLOBIN,[4],12.1 G/DL
same,LEUKOCYTE COUNT,[4],11.5 x10E3/uL
same,LYMPHOCYTE,[4],76%
same,MEAN CORPUSCULAR HEMOGLOBIN,[4],22.7 pg
same,MEAN CORPUSCULAR HEMOGLOBIN CONCENTRATION,[4],38.7 G/DL
same,MEAN CORPUSCULAR VOLUME,[4],58.8 fL
same,MONOCYTE,[4],0%
same,NEUTROPHIL,[4],24%
same,NUCLEATED RED BLOOD CELLS,[4],2 /100WBC
same,PLATELET COUNT,[4],1853 x10E3/uL
same,ALANINE AMINOTRANSFERASE,[4],113 u/L
same,ALBUMIN,[4],4.4 G/DL
same,ALKALINE PHOSPHATASE,[4],238 u/L
same,ASPARTATE AMINOTRANSFERASE,[4],86 u/L
same,BLOOD UREA NITROGEN,[4],17 mg/dL
same,CARBON DIOXIDE,[4],22 mmol/L
same,CHLORIDE,[4],102 MEQ/L
same,CHOLESTEROL,[4],58 mg/dL
same,CREATINE PHOSPHOKINASE,[4],287 u/L
same,CREATININE,[4],0.1 mg/dL
same,GLUCOSE,[4],153 mg/dL
same,LACTATE DEHYDROGENASE,[4],188 u/L
same,LIPASE,[4],9 u/L
same,PHOSPHORUS,[4],14.8 mg/dL
same,POTASSIUM,[4],5.92 MEQ/L
same,SODIUM,[4],141.9 MEQ/L
same,TOTAL BILIRUBIN,[4],0.2 mg/dL
same,TOTAL PROTEIN,[4],5.6 G/DL
same,URIC ACID,[4],2.1 mg/dL

# — ChEMBL document CHEMBL3885881, “DrugMatrix”
